In patent US20070212360A1, “Modulation of mitochondrial oxygen consumption for therapeutic purposes” (priority 2006, published 2007):

Legend:
RKO and RKOShHIF1α cells = test: In vitro oxygen consumption of RKO and RKOShHIF1α cells; assay type: cell-based, human; details: 0.5% O2 24 h
Procedure: (§1) FIG. 7. Inhibition of HIF1 and PDK1 increases oxygen consumption in vitro and in vivo. (a) Western blots of extracts from RKO and Su.86 cells exposed to normoxia (N) or hypoxia (H) (0.5% O2) for 24 h in the presence or absence of 2 ng/ml echinomycin probed for the indicated proteins. (b) Oxygen consumption rates of RKO and RKOShHIF1α cells (left) and Su.86 cells (right) after 24 h treatment with normoxia or hypoxia (0.5% O2) with or without 2 ng/ml echinomycin. Data are normalized to normoxic samples. (c) Relative oxygen consumption of RKO cells treated with hypoxia (0.5% O2) for 24 h in the presence of increasing concentrations of echinomycin. (d) Oxygen consumption rates of freshly explanted tumor tissue from RKO (n=16) and RKOShHIF1α (n=8) xenografts. (e) Oxygen consumption rates of RKO and RKOShHIF1 tumors from mice treated with 0.12 mg/kg echinomycin ip 24 h prior (n=8), or 50 mg/kg DCA ip 4 h prior (n=8). Data is normalized to PBS treated controls (n=8-16). (*) indicate a significant difference relative to control (p<0.05).
Oxygen consumption measurements. Cells were trypsinized and suspended at 3×10^6 to 6×10^6 cells per ml in normoxic DMEM+10% FBS. Oxygen consumption was measured in a 0.5 ml volume using an Oxytherm electrode unit (Hansatech, Norfolk, UK). […] Oxygen consumption was measured as above in a 1 ml volume and normalized to tissue weight.

[1] = test system: HIF1 targets PDK1, Bnip3, and Bnip3L in RKO and Su.86 human tumor cells; test: Western blot of HIF1 target proteins in hypoxic tumor cells; assay type: cell-based; details: RKO and Su.86 cells, 0.5% O2 24 h, 2 ng/ml echinomycin
Procedure: as §1, with “Data is normalized to PBS treated controls (n=8-16). (*) indicate a significant difference relative to control (p<0.05).” left out
Western blots. In brief, cells were harvested directly in RIPA buffer containing protease inhibitors, protein concentrations were quantified (Pierce), 25-50 μg of total protein was electrophoresed on a reducing Tris-Tricine gel, and electroblotted to PVDF membrane. […] Primary antibodies were detected with species-specific secondary antibodies labeled with Alkaline Phosphatase (Vector labs) (1:3000) and visualized with ECF (Amersham) on a Storm 860 phosphoimager (Molecular Devices).

[2] = test system: RKO and RKOShHIF1α tumors; test: Tumor growth delay, RKO and RKOShHIF1α xenografts; assay type: in vivo, mouse
Procedure: FIG. 10. Pharmacologic inhibition of HIF1 or PDK1 enhances the response of tumor xenografts to the hypoxic cytotoxin tirapazamine. For all experiments, treatment was initiated when the mean tumor volume was 100-200 mm^3. (a) RKO tumor bearing mice were treated with 0.12 mg/kg echinomycin ip followed by 30 mg/kg tirapazamine ip at 24 hours, followed by a rest day for 3 cycles. Single agents were given at the same dose, on the same schedule. (b) RKO tumor bearing mice were treated with 50 mg/kg DCA ip followed by 20 mg/kg tirapazamine ip at 4 hours daily for 14 days. Single agents were given at the same dose, on the same schedule. (c,d,e) RKO (c), RKOShHIF1α (d), or Su.86 (e) tumor bearing mice were treated with echinomycin plus tirapazamine as described above for 6 cycles (Ech+TPZ), or tirapazamine followed by echinomycin at 24 hours followed by a rest day for 6 cycles (TPZ+Ech). For all experiments, arrows indicate when treatment was stopped.
Cell lines and tumor xenografts. RKO human colon carcinoma cells and Su.86 human pancreatic carcinoma cells were obtained from the American Type Culture Collection (ATCC, Manassas, Va.). The RKOShHIF1α cell line in which HIF1α is stably knocked down by shRNA has been described previously. RKO and immortalized MEF cells were grown in Dulbecco's Modified Eagle's Media (DMEM) supplemented with 10% fetal bovine serum (FBS). Su.86 cells were grown in RPMI 1640 medium supplemented with 10% FBS. Cells were exposed to hypoxia by placing culture dishes into an Invivo2 humidified hypoxia workstation (Ruskin Technologies, Bridgend, UK) at 0.5% O2. Echinomycin (a gift of A. Giaccia, Stanford University) was included in the media at the indicated concentrations. Tumor xenografts were established by injecting 5×10^6 cells for the RKO lines or 1×10^7 cells for the Su.86 line sc into the flanks of 6-8 week old female nude mice. To monitor tumor growth, caliper measurements were made of two perpendicular diameters, and the formula (d1)(d2)(d2)(0.52) was used to calculate tumor volume. […]

SMILES: CS[C@H]1SC[C@H]2C(=O)N(C)[C@@H](C(C)C)C(=O)OC[C@@H](NC(=O)c3cnc4ccccc4n3)C(=O)N[C@@H](C)C(=O)N(C)[C@@H]1C(=O)N(C)[C@@H](C(C)C)C(=O)OC[C@@H](NC(=O)c1cnc3ccccc3n1)C(=O)N[C@@H](C)C(=O)N2C [echinomycin]
- effect on HIF1-dependent reduction in oxygen consumption in parental cells (RKO and RKOShHIF1α cells; RKO parental cells, increasing concentrations): dose-dependent block
- effect on oxygen consumption in RKOShHIF1α cells (RKO and RKOShHIF1α cells; RKOShHIF1α cells, 2 ng/ml): no effect
- hypoxic induction of PDK1, Bnip3, and Bnip3L (immunoblot) [1]: blocked
- tumor growth delay of combination compared to single agents, RKO tumors ([2]; 0.12 mg/kg echinomycin ip followed at 24 h by 30 mg/kg tirapazamine ip, rest day, 3 cycles): greater than additive
- effect on tumor growth, RKOShHIF1 tumors ([2]; echinomycin plus tirapazamine, regardless of the order the drugs were given, 6 cycles): no significant effect
- effect on growth of RKO tumors, reversed schedule ([2]; tirapazamine followed by echinomycin at 24 hours, 6 cycles, compared to echinomycin followed by tirapazamine): little effect
